Measurements from patent US20110269700A1, “GLUCOSIDE DERIVATIVES AND USES THEREOF” (NOVARTIS AG, priority 2008, published 2011).

Experiments:
[1] = biological target: T1, human sodium glucose cotransporter 2 (Homo sapiens, UniProt P31639); assay: SGLT2 assay: 14C-AMG uptake in CHO-hSGLT2 or HEK-hSGLT2 cells; assay type: cell-based; settings: n = 1-4
T1 construct: expressed in transfected cells; host or cells: CHO-K1 (ATCC CCL-61) or HEK293 (ATCC CRL-1573), stably transfected with pZeoSV
T1 sequence (P31639 1-672): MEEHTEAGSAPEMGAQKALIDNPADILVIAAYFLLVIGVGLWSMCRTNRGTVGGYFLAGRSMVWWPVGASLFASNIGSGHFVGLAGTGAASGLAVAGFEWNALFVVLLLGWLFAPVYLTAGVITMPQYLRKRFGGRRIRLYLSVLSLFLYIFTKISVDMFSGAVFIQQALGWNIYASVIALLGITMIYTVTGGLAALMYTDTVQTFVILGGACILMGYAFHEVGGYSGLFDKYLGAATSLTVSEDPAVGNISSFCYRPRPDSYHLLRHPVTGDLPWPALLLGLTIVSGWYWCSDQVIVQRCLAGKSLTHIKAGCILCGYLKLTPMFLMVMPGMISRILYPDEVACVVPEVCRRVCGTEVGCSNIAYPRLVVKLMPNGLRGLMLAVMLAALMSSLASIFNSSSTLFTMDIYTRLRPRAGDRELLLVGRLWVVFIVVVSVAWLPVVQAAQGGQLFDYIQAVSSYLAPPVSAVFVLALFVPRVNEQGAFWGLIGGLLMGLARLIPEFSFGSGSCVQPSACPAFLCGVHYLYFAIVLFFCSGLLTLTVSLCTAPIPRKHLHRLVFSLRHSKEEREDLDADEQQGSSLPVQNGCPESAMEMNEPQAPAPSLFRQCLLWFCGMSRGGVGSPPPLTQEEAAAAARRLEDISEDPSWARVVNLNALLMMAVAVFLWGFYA
Experimental: These cell lines transport ^14C-labeled alpha-methyl-glucopyranoside (^14C-AMG, Amersham) into the interior of the cell in sodium-dependent manner.
The SGLT-2 assay is carried out as follows: CHO-hSGLT2 cells are cultivated in Ham's F12 Medium (BioWhittaker) with 10% fetal calf serum and 250 μg/mL zeocin (Invitrogen), and HEK293-hSGLT2 cells are cultivated in DMEM medium with 10% fetal calf serum and 250 μg/mL zeocin (Invitrogen). The cells are detached from the culture flasks by washing twice with PBS and subsequently treating with trypsin/EDTA. After the addition of cell culture medium the cells are centrifuged, resuspended in culture medium and counted in a Casy cell counter. Then 40,000 cells per well are seeded into a white, 96-well plate coated with poly-D-lysine and incubated overnight at 37° C., 5% CO2. The cells are washed twice with 250 μl of assay buffer (Hanks Balanced Salt Solution, 137 mM NaCl, 5.4 mM KCl, 2.8 mM CaCl2, 1.2 mM MgSO4 and 10 mM HEPES (pH 7.4), 50 μg/mL of gentamycin). 250 μl of assay buffer and 5 μl of test compound are then added to each well and the plate is incubated for a further 15 minutes in the incubator. 5 μl of 10% DMSO are used as the negative control. The reaction is started by adding 5 μl of 14 C-AMG (0.05 μCi) to each well. After 2 hours' incubation at 37° C., 5% CO2, the cells are washed again with 250 μl of PBS ([…]) and then lysed by the addition of 25 μl of 0.1 N NaOH (5 min. at 37° C.). 200 μl of MicroScint20 (Packard) are added to each well and incubation is continued for a further 20 min at 37° C. After this incubation the radioactivity of the 14 C-AMG absorbed is measured in a Topcount (Packard) using a 14 C scintillation program.

human SGLT1 = biological target: T2, human SGLT1 (Homo sapiens, UniProt P13866); assay: SGLT1 assay: 14C-AMG uptake in CHO-K1 or HEK293 cells expressing hSGLT1; assay type: cell-based; settings: n = 1-4
T2 construct: expressed in transfected cells; host or cells: CHO-K1 or HEK293
T2 sequence (P13866 1-664): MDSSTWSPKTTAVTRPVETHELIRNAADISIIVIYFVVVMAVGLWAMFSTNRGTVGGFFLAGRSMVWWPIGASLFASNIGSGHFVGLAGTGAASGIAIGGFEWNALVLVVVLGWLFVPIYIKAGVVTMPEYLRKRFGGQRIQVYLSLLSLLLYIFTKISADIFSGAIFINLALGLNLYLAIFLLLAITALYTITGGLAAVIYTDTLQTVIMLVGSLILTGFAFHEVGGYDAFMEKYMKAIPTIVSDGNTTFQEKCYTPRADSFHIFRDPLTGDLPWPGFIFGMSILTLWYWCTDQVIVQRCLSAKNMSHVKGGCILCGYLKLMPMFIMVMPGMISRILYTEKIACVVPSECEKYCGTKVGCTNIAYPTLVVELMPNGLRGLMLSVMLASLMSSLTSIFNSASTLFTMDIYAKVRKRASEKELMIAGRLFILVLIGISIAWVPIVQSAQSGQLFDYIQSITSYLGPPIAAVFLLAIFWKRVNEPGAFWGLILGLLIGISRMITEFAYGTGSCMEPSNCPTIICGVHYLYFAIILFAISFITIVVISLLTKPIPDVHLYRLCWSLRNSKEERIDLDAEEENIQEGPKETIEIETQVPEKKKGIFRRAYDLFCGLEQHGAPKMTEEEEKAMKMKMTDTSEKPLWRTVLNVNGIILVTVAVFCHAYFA
Experimental: To determine human SGLT1 inhibitory activity, an analogous test was set up in which the cDNA for hSGLTI (Genbank Ace. No. NM000343) instead of hSGLT2 cDNA is expressed in CHO-K1 or HEK293 cells. The uptake assay buffer in the case of the hSGLT1 assay contains 10 mM HEPES, 5 mM Tris, 140 mM NaCl, 2 mM KCl, 1 mM CaCl2, and 1 mM MgCl2, pH 7.4 containing 0.5 mM of α-methyl-D-glucopyranoside (AMG), 10 μM of [^14C]-α-methyl-D-glucopyranoside and different inhibitor concentrations.

Row | IC50 [1] [nM] | IC50 (human SGLT1) [nM] | SMILES
1 | 10 | 280 | CCOc1ccc(Cc2cc([C@@H]3O[C@H](CN(C)c4cccc(C(=O)N5CCCC5)c4)[C@@H](O)[C@H](O)[C@H]3O)ccc2Cl)cc1 [Example 37, [3-({(2R,3S,4R,5R,6S)-6-[4-Chloro-3-(4-ethoxy-benzyl)-phenyl]-3,4,5-trihydroxy-tetrahydro-pyran-2-ylmethyl}-methyl-amino)-phenyl]-pyrrolidin-1-yl-methanone]
2 | 23 | 1500 | CCOc1ccc(Cc2cc([C@@H]3O[C@H](CNc4cccc(NC(C)=O)c4)[C@@H](O)[C@H](O)[C@H]3O)ccc2Cl)cc1 [Example 34, N-[3-({(2R,3S,4R,5R,6S)-6-[4-Chloro-3-(4-ethoxy-benzyl)-phenyl]-3,4,5-trihydroxy-tetrahydro-pyran-2-ylmethyl}-amino)-phenyl]-acetamide]
3 | 81 |  | CCOc1ccc(Cc2cc([C@@H]3O[C@H](Cn4cc(C(N)=O)nn4)[C@@H](O)[C@H](O)[C@H]3O)ccc2Cl)cc1 [Example 12, 1-{(2R,3S,4R,5R,6S)-6-[4-Chloro-3-(4-ethoxy-benzyl)-phenyl]-3,4,5-trihydroxy-tetrahydro-pyran-2-ylmethyl}-1H-[1,2,3]triazole-4-carboxylic acid amide]
4 | 50 | 32000 | CCOc1ccc(Cc2cc([C@@H]3O[C@H](Cn4cc(CO)nn4)[C@@H](O)[C@H](O)[C@H]3O)ccc2Cl)cc1 [Example 10, (2S, 3R, 4R, 5S, 6R)-2-[4-Chloro-3-(4-ethoxy-benzyl)-phenyl]-6-(4-hydroxymethyl-[1,2,3]triazol-1-ylmethyl)-tetrahydro-pyran-3,4,5-triol]
5 | 94 | > 10000 | CCOc1ccc(Cc2cc([C@@H]3O[C@H](Cn4nncc4CO)[C@@H](O)[C@H](O)[C@H]3O)ccc2Cl)cc1 [Example 9, (2S, 3R, 4R, 5S, 6R)-2-[4-Chloro-3-(4-ethoxy-benzyl)-phenyl]-6-(5-hydroxymethyl-[1,2,3]triazol-1-ylmethyl)-tetrahydro-pyran-3,4,5-triol]
